According to patent US20020111274A1, “1-alkyl-3-[1-(substituted phenyl) benzotriazol-6-yl] uracils” (BASF Aktiengesellschaft, priority 2000, published 2002):

Tests used:
Parameters in all cases: scale not given here
[1] = test system: GLXMAW Soybean, Williams; assay: Postemergence herbicidal evaluation, GLXMAW; format: in vivo, Glycine max, (L.) Merr. cv Williams; details: postemergence spray, rated about two-three weeks after treatment
Method in brief: (§1)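 Ratings from greenhouse plants scored about two to three weeks after a foliar spray; data from multiple tests averaged. Seedlings about two weeks old received roughly 0.006–0.400 kg/ha active compound in 80/20 acetone/water with 1.0% methylated seed oil.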

[2] = test system: SETVI Foxtail, Green; assay: Postemergence herbicidal evaluation, SETVI; format: in vivo, Setaria viridis, (L.) Beau; details: postemergence spray, rated about two-three weeks after treatment
Method in brief: as §1

[3] = test system: ABUTH Velvetleaf; assay: Preemergence herbicidal evaluation, ABUTH; format: in vivo, Abutilon theophrasti, Medic.; details: preemergence
Method in brief: (§2)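 Visual ratings were taken four to five weeks after application. Before that, cups sown with seed in potting soil received a spray of compound dissolved in aqueous acetone, equivalent to about 0.013 to 0.800 kg/ha, and stood on greenhouse benches under conventional care.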

[4] = test system: ECHOG Barnyardgrass; assay: Postemergence herbicidal evaluation, ECHOG; format: in vivo, Echinochloa crus-galli, (L.) Beau; details: postemergence spray, rated about two-three weeks after treatment
Method in brief: as §1

[5] = test system: AMBEL Ragweed, Common; assay: Postemergence herbicidal evaluation, AMBEL; format: in vivo, Ambrosia artemisifolia, L.; details: postemergence spray, rated about two-three weeks after treatment
Method in brief: as §1

[6] = test system: ZEAMX Corn, Field; assay: Postemergence herbicidal evaluation, ZEAMX; format: in vivo, Zea mays, L. (Sammel-Bezeichnung); details: postemergence spray, rated about two-three weeks after treatment
Method in brief: as §1

[7] = test system: TRZAWR Wheat, Winter, cv Riband; assay: Postemergence herbicidal evaluation, TRZAWR; format: in vivo, Triticum aestivum; details: postemergence spray, rated about two-three weeks after treatment
Method in brief: as §1

[8] = test system: TRZAWR Wheat, Winter, cv Riband; assay: Preemergence herbicidal evaluation, TRZAWR; format: in vivo, Triticum aestivum; details: preemergence
Method in brief: as §2

[9] = test system: AMBEL Ragweed, Common; assay: Preemergence herbicidal evaluation, AMBEL; format: in vivo, Ambrosia artemisifolia, L.; details: preemergence
Method in brief: as §2

[10] = test system: ZEAMX Corn, Field; assay: Preemergence herbicidal evaluation, ZEAMX; format: in vivo, Zea mays, L. (Sammel-Bezeichnung); details: preemergence
Method in brief: as §2

[11] = test system: ORYSAT Rice, Tebonnet; assay: Postemergence herbicidal evaluation, ORYSAT; format: in vivo, Oryza sativa, (L.); details: postemergence spray, rated about two-three weeks after treatment
Method in brief: as §1

[12] = test system: ECHOG Barnyardgrass; assay: Preemergence herbicidal evaluation, ECHOG; format: in vivo, Echinochloa crus-galli, (L.) Beau; details: preemergence
Method in brief: as §2

## Cc1ccc(OCC(=O)O)cc1-n1nnc2cc(F)c(-n3c(=O)cc(C(F)(F)F)n(C)c3=O)cc21 [Example 37]
[1]; 0.016 kg/ha
  Postemergence herbicidal rating GLXMAW: 4.0
[1]; 0.032 kg/ha
  Postemergence herbicidal rating GLXMAW: 6.5
[1]; 0.062 kg/ha
  Postemergence herbicidal rating GLXMAW: 7.0
[2]; 0.008 kg/ha
  Postemergence herbicidal rating SETVI: 0.0
[2]; 0.016 kg/ha
  Postemergence herbicidal rating SETVI: 0.0
[2]; 0.032 kg/ha
  Postemergence herbicidal rating SETVI: 7.0
[2]; 0.062 kg/ha
  Postemergence herbicidal rating SETVI: 9.0
[3]; rate 0.016 kg/ha
  ABUTH herbicidal rating: 0.0
[3]; rate 0.032 kg/ha
  ABUTH herbicidal rating: 0.0
[3]; rate 0.062 kg/ha
  ABUTH herbicidal rating: 9.0
[3]; rate 0.125 kg/ha
  ABUTH herbicidal rating: 9.0
[4]; 0.008 kg/ha
  Postemergence herbicidal rating ECHCG: 0.0
[4]; 0.016 kg/ha
  Postemergence herbicidal rating ECHCG: 0.0
[4]; 0.032 kg/ha
  Postemergence herbicidal rating ECHCG: 2.0
[4]; 0.062 kg/ha
  Postemergence herbicidal rating ECHCG: 3.0
[5]; 0.008 kg/ha
  Postemergence herbicidal rating AMBEL: 0.0
[5]; 0.016 kg/ha
  Postemergence herbicidal rating AMBEL: 4.0
[5]; 0.032 kg/ha
  Postemergence herbicidal rating AMBEL: 9.0
[5]; 0.062 kg/ha
  Postemergence herbicidal rating AMBEL: 9.0
[6]; 0.008 kg/ha
  Postemergence herbicidal rating ZEAMX: 7.0
[6]; 0.016 kg/ha
  Postemergence herbicidal rating ZEAMX: 7.5
[6]; 0.032 kg/ha
  Postemergence herbicidal rating ZEAMX: 7.5
[6]; 0.062 kg/ha
  Postemergence herbicidal rating ZEAMX: 8.0
[7]; 0.008 kg/ha
  Postemergence herbicidal rating TRZAWR: 3.5
[7]; 0.016 kg/ha
  Postemergence herbicidal rating TRZAWR: 5.5
[7]; 0.032 kg/ha
  Postemergence herbicidal rating TRZAWR: 5.5
[7]; 0.062 kg/ha
  Postemergence herbicidal rating TRZAWR: 7.0
[8]; rate 0.016 kg/ha
  TRZAWR herbicidal rating: 0.0
[8]; rate 0.032 kg/ha
  TRZAWR herbicidal rating: 0.0
[8]; rate 0.062 kg/ha
  TRZAWR herbicidal rating: 0.0
[8]; rate 0.125 kg/ha
  TRZAWR herbicidal rating: 0.0
[9]; rate 0.016 kg/ha
  AMBEL herbicidal rating: 0.0
[9]; rate 0.032 kg/ha
  AMBEL herbicidal rating: 0.0
[9]; rate 0.062 kg/ha
  AMBEL herbicidal rating: 0.0
[9]; rate 0.125 kg/ha
  AMBEL herbicidal rating: 3.0
[10]; rate 0.016 kg/ha
  ZEAMX herbicidal rating: 0.0
[10]; rate 0.032 kg/ha
  ZEAMX herbicidal rating: 0.0
[10]; rate 0.062 kg/ha
  ZEAMX herbicidal rating: 0.0
[10]; rate 0.125 kg/ha
  ZEAMX herbicidal rating: 0.0
[11]; 0.008 kg/ha
  Postemergence herbicidal rating ORYSAT: 0.5
[11]; 0.016 kg/ha
  Postemergence herbicidal rating ORYSAT: 1.0
[11]; 0.032 kg/ha
  Postemergence herbicidal rating ORYSAT: 3.5
[11]; 0.062 kg/ha
  Postemergence herbicidal rating ORYSAT: 7.5
[12]; rate 0.016 kg/ha
  ECHCG herbicidal rating: 0.0
[12]; rate 0.032 kg/ha
  ECHCG herbicidal rating: 0.0
[12]; rate 0.062 kg/ha
  ECHCG herbicidal rating: 0.0
[12]; rate 0.125 kg/ha
  ECHCG herbicidal rating: 0.0
